Experimental data as given in patent publication US7320995B2, “Benzimidazoles and benzothiazoles as inhibitors of map kinase” (Eli Lilly and Company, priority 2002, dated 2008).
Values belong to the molecule of their own block, whether it stands above or below them.

Assays:
[1] = test system: TNF-α production in mouse peritoneal macrophages; assay: Inhibition of TNF-α in vitro, mouse peritoneal macrophages, Luminex; assay type: cell-based; settings: Peritoneal macrophage; LPS and interferon-γ stimulated mouse peritoneal macrophages, 18 hours; read-out: IC50, suppression of TNF-α in vitro
Method: At day 4 or 5 post-injection the mice are sacrificed and then injected i.p. with 4 mL Dulbecco's phosphate-buffered saline (BioWhittaker) and the peritoneal macrophages are withdrawn by syringe. Mouse peritoneal macrophages are counted with a hemocytometer and adjusted to 2.5×10^6 cells/ml complete media (RPMI-1640 medium containing 10% fetal bovine serum). Cells are plated in 96-well flat-bottom plates at 5×10^5 cells per 200 μl per well and allowed to settle and adhere to the bottom of the well for at least 3 hours. […] (20 μL/well). The cells are then treated with a mixture of 50 ng/L lipopolysaccharide (LPS) and 10 U/mL interferon-γ for 18 hours at 37° C. (20 μL/well). The conditioned media is harvested and assayed for TNF-α production using the Luminex procedure. […] The premixed anti-cytokine conjugated beads are vortexed (25×) vigorously for 30 seconds. The anti-cytokine conjugated beads are diluted to a 1× concentration using 1× Bio-Plex Assay Buffer. For every plate, 240 μL of the pre-mixed beads is added to 5760 μL of Bio-Plex Assay Buffer. […] The blocking buffer is filtered through using a Millipore filtration system and then toweled dry. Two washes are performed on the filter plate with 100 μl/well of Bio-Plex Assay Buffer and toweled dry. The 1× anti-cytokine conjugated beads are vortexed for 15 seconds and added 50 μL to each well. This is filtered through and toweled dry. Two washes are performed on plates with 100 μl/well of Bio-Plex Wash Buffer. Again, it is filtered through and toweled dry. 50 μL of sample or standard is added to each sample well. This is incubated for 60 seconds at room temperature on a shaker protected from light at setting 6 and then for 30 minutes at setting 3 and then placed in the refrigerator overnight. […] Standards and samples are read on a Luminex machine. These intensity readings are then converted to picogram/milliliter units based on a 12-point standard curve created in duplicate using a four-parameter logistic regression method (Bio-Plex Manager, Versions 2.0 and 3.0, Bio-Rad), and the IC50 calculated.

[2] = test system: B16F10 melanoma lung metastases; assay: Inhibition of B16F10 melanoma lung metastases; assay type: in vivo, C57B16 mice; settings: day -1 to 16
Method: The B16F10 melanoma cell line is obtained from the American Type Culture Collection, Rockville, Md. The cells are cultured in RPMI-1640 medium supplemented with 10% fetal calf serum. The cells grown in vitro are harvested during their exponential growth phase by gentle trypsinization, washed twice in medium, and resuspended in serum-free RPMI-1640 medium. The number of monodisperse viable cells is determined using a hemocytometer and adjusted to 1×10^6 cells/mL. Tumor cells are injected intravenously into the tail vein of normal C57B16 mice with an inoculum volume of 0.2 ml containing 200,000 cells. Mice are treated with test compound or vehicle control starting 1 day before i.v. tumor inoculation. Example 77 (free base) is prepared as a suspension formulation in 1% NaCMC/0.25% polysorbate 80 and probe sonicated in an injection volume of 1% body weight (e.g., the 30 mg/kg dose level is prepared at 3 mg/ml and 0.2 cc was administered per 20 gram mouse). Mice are treated orally tid. with the compound at 30, 10, and 3 mg/kg (90, 30, and 9 mg/kg/day) from days −1 through 16 after tumor cell inoculation. Control mice receive the vehicle alone in an identical manner. On day 16, the mice are sacrificed, and the lungs are harvested and fixed in 3% paraformaldehyde. Lung lesions are quantitated by manual counting under a dissecting microscope.
The test compound was tested in the B16F10 melanoma lung metastasis model orally at 3, 10, and 30 mg/kg, tid from one day before to 16 days after i.v. tumor inoculation (total dose 9, 30 and 90 mg/kg/day). The lungs were harvested on day 16 and lung lesions were quantitated.

P815 tumors = assay: Inhibition of P815 tumor growth in vivo; parameters: species or system DBA/2 mice
Method: Female(6-8 weeks old) DBA/2 mice (Taconic) are implanted subcutaneously into the hind flank region on day 0 with P815 cells (0.5×10^6 cells in 200 ul of RPMI 1640). P815 tumor cells are purchased from ATCC and are cultured in RPMI 1640 medium, supplemented with glutamine and 10% bovine serum at 37° C. in 5% CO2 cell culture incubator. Tumor-bearing animals are treated with oral administration of Example 77 (free base), at different doses or vehicle with frequency of three times a day started on the day of implantation. Tumor growth is monitored every 2 days by measuring perpendicular diameters. Tumor volume expressed in milligram (mg) is determined as the product of the largest diameter (a) and its perpendicular (b) according to the formula [tumor volume=a×b^2×0.536].

TNF-α = assay: Effect on intra-articular LPS induced TNF-α (synovial lavage fluid, ELISA); assay type: in vivo, female Lewis rats; settings: orally, one hour before intra-articular LPS, lavage after two hours
Method: Intra-articular injection of LPS into rat […] induces the synthesis of TNF-α, which can be measured in synovial lavage fluid. High levels of TNF-α are detectable within 2 hours. Since the joint is the site where arthritis develops, this model can rapidly determine whether an orally administered compound has an effect on an inflammatory response in the synovium.
Six female Lewis rats (150-200 g) are place in each treatment group. The animals are given vehicle (1% NaCarboxymethylcellulose-0.25% Tween 80) or Example 77 (free base) (1 mg/kg, 3 mg/kg, 10 mg/kg, and 30 mg/kg) orally. One hour later, 10 μl LPS (10 μg) is administered intra-articulately into the right ankle of each rat, while the left ankle receives 10 μL of saline. After two hours, each […] is laved with 100 μL of saline. The lavage is collected and stored at −80° C. • Group#1: Vehicle (1% NaCMC-0.25% Tween 80, 1 mL, PO) • Group#2: Example 77 (free base) (1 mg/kg, 1 mLl, PO) • Group#3: Example 77 (free base) (3 mg/kg, 1 mL, PO) • Group#4: Example 77 (free base) (10 mg/kg, 1 mL, PO) • Group#5: Example 77 (free base) (30 mg/kg, 1 mL, PO)
TNF-α was measured with a commercially available ELISA kit (R&D, RTA00). […] The TMED50=10 mg/kg for Example 77 in this assay.

[3] = test system: MAPKAPK-2 phosphorylation (p38 MAPK) in B16F10 tumors; assay: B16F10 target (phosphorylated MAPKAPK-2) studies, immuno-blot of tumors; assay type: in vivo, C57B16 mice
[4] = test system: MAPKAP-K2 phosphorylation in P815 tumors; assay: In vivo target inhibition study in P815 mastocytoma model; parameters: species or system DBA/2 mice; settings: single oral dose 30 mg/kg
Method: In vivo target inhibition is determined by measuring the effect of inhibitor treatment on the phosphorylation of MAPKAP-K2 expressed in P815 tumor tissues. Tumors in DBA/2 mice received P815 cells subcutaneous implantation are allowed to grow to a size of 300-500 mg without treatment. Tumor bearing mice are then given oral administration of Example 77 (free base) or vehicle. To investigate time course related target inhibition by Example 77 (free base), tumors are harvested from CO2 sacrificed animals at the indicated times (3 hours, 6 hours, 12 hours, and 18 hours) after compound is dosed at 30 mg/kg. Dose-dependent target inhibition by Example 77 (free base) is investigated by harvesting tumors at 3 hours after orally given different doses of Example 77 (free base) or vehicle. Harvested tumors are immediately snap frozen onto dry ice, pulverized, homogenized and lysed in cooled lysis buffer containing proteinase and phosphatase inhibitors. After centrifugation to remove cell debris, supernatants containing 100 microgram total proteins are resuspended in 2×Tris-Glycin loading buffer and subjected to sodium dodecyl sulfate-polyacrylamide gel electrophoresis (10% Tris-Glycine) under reducing conditions. […] Expression level of phospho-p38 MAP kinase and total p-38 MAP kinase is also monitored by similar western blotting procedure.

[5] = Rat collagen induced arthritis efficacy model; assay type: in vivo, female Lewis rats
Method: Female Lewis rats ((≅190 gm, Charles River Labs) are immunized with Bovine type II collagen (2 mg/ml) emulsified with an equal volume of adjuvant (aluminum hydroxide). […]. The rats are immunized with approximately […] of the emulsion intradermally on the back near the base of the tail. All animals are re-immunized 7 days later according to the same protocol. The rats begin to develop arthritis (characterized by swelling and redness of one or both ankles) from 12 to 14 days after the first immunization. The rats are equally distributed into five treatment groups at the first signs of arthritis and treatment is initiated with each rat dosed bid for 14 days.
• Group 1 Vehicle (1% NaCarboxymethylcellulose+0.25% Tween 80) 1 mL, PO, Bid×14 days • Group 2 Example 77 (free base), 5 mg/kg, 1 mL, PO, Bid×14 • Group 3 Example 77 (free base), 15 mg/kg, 1 mL, PO, Bid×14 • Group 4 Example 77 (free base), 30 mg/kg, 1 mL, PO, Bid×14 • Group 5 Prednisolone 10 mg/kg, 1 mL, PO, qd×14
Ankle diameter is measured with calipers 5 days a week and recorded. Data is expressed as the area under the curve (AUC) generated from the composite inflammation scores and statistical analysis performed.
At the termination of the study, animals were sacrificed and ankles processed for histological evaluation. […]

angiogenesis = settings: J. R. Jackson, et al., 1998; cited from earlier work

- IC50 [1]: < 100 nM
Structure (SMILES): CC(C)S(=O)(=O)n1c(N)nc2ccc(-c3nc(-c4cccs4)[nH]c3-c3ccccc3)cc21 [Example 1, 1-isopropylsulfonyl-2-amino-6-(2-(thien-2-yl)-5-(phenyl)-imidazol-4-yl)-benzimidazole methanesulfonate]

- IC50 [1]: < 100 nM
Structure (SMILES): CC(C)S(=O)(=O)n1c(N)nc2ccc(-c3nc(-c4ccncc4)[nH]c3-c3ccccc3)cc21 [Example 16, 1-isopropylsulfonyl-2-amino-6-(2-(pyridin-4-yl)-5-(phenyl)-imidazol-4-yl)-benzimidazole]

- IC50 [1]: < 100 nM
Structure (SMILES): CC(C)S(=O)(=O)n1c(N)nc2ccc(-c3nc(-c4nccs4)[nH]c3-c3ccccc3)cc21 [Example 17, 1-isopropylsulfonyl-2-amino-6-(2-(thiazol-2-yl)-5-(phenyl)-imidazol-4-yl)-benzimidazole]

Continued, molecule first:

Structure (SMILES): CC(C)S(=O)(=O)n1c(N)nc2ccc(-c3nc(-c4c(F)cccc4F)[nH]c3-c3ccccc3)cc21 [Example 77, 1-isopropylsulfonyl-2-amino-6-(2-(2,6-difluorophenyl)-5-(phenyl)-imidazol-4-yl)-benzimidazole]
- inhibition of lung metastasis formation ([2]; 3 mg/kg orally tid): 54%
- inhibition of lung metastasis formation ([2]; 10 mg/kg orally tid): 73%
- inhibition of lung metastasis formation ([2]; 30 mg/kg orally tid): 95%
- inhibition of tumor volume (P815 tumors; 3 mg/kg oral tid): 55%
- inhibition of tumor volume (P815 tumors; 30 mg/kg oral tid): 67%
- TMED50, inhibition of TNF-α synthesis in synovial lavage fluid (TNF-α): 10 mg/kg
- time for which p38 MAPK activity was inhibited ([3]; 30 mg/kg, time course study): up to 9 hours
- ANOVA TMED50, inhibition of MAPKAPK-2 phosphorylation ([3]; 2.5 hours after p.o. dosing): 3 mg/kg
- lowest dose with appreciable inhibition of MAPKAPK-2 phosphorylation ([3]; 2.5 hours after p.o. dosing): 0.3 mg/kg
- reduction of the phosphorylation level of MAPKAPK-2 in the tumors ([3]; doses >30 mg/kg): > 80%
- earliest time of the inhibitory effect on MAPKAP-K2 phosphorylation [4]: 3 h
- time to which the inhibitory effect on MAPKAP-K2 phosphorylation extended [4]: 12 h
- maximum reduction in ankle diameter ([5]; 30 mg/kg PO bid x 14 days): 46%

Structure (SMILES): C[C@]12C=CC(=O)C=C1CC[C@@H]1[C@@H]2[C@@H](O)C[C@@]2(C)[C@H]1CC[C@]2(O)C(=O)CO [Prednisolone, reference compound]
- inflammation (ankle diameter) ([5]; 10 mg/kg PO qd x 14): reduced the inflammation to pre-arthritic levels

Structure (SMILES): Nc1nccc(-c2c(-c3ccc(F)cc3)ncn2C2CCNCC2)n1 [SB22025]
- inhibition of angiogenesis (angiogenesis): has been shown to inhibit angiogenesis
